From patent publication US12173088B2, “Anti-microbial peptides” (priority 2018, dated 2024)
Values after ≈ are worked out from the molar mass of the structure shown. Square brackets hold non-standard residues; d marks the D form. Peptide text beside a SMILES is read from it.

How the values were obtained:
E. coli E423-17 = assay: microbe, parasite or virus in culture; type: cell-based, Escherichia coli; details: E423-17; read-out: MIC E. coli E423-17
Method in brief: (§1)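 Broth microdilution: log-phase cultures in tryptic soy broth diluted to OD600 0.001, exposed to two-fold diluted peptides at 37° C overnight, growth read at 630 nm. Medium effects on S. aureus USA300 tested with up to 200 mM NaCl, 2 mM CaCl2, 5-10% human serum, mouse plasma, fluids or tissue homogenate supernatants.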

K. pneumoniae E406-17 = assay: microbe, parasite or virus in culture; type: cell-based, Klebsiella pneumoniae; details: E406-17; read-out: MIC K. pneumoniae E406-17
Method in brief: (§2)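 Broth microdilution in tryptic soy broth: log-phase cultures (OD600 ≈0.5) diluted to OD600 0.001, given two-fold peptide dilutions, incubated overnight at 37° C. Growth read at 630 nm.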

P. aeruginosa E411-17 = assay: microbe, parasite or virus in culture; type: cell-based, Pseudomonas aeruginosa; details: E411-17; read-out: MIC P. aeruginosa E411-17
Method in brief: as §1

E. faecium V286-17 (VRE) = assay: microbe, parasite or virus in culture; type: cell-based, Enterococcus faecium; details: V286-17 (VRE)
Method in brief: as §1

E. coli ampC E416-7 = type: cell-based, Escherichia coli; details: Table 7
Source text: The bacterial strains used include the Gram-positive strains Staphylococcus aureus USA300 LAC, S. epidermidis 1457, and Bacillus subtilis 168, as well as the Gram-negative isolates Escherichia coli K12 and Acinetobacter baumannii B2367-12. Additional, drug resistance strains include Gram-positive Enterococcus faecium V286-17 (VRE) and S. aureus M838-17 (MRSA) and Gram-negative E. coli E423-17, E. coli E416-17 (ampC), and P. aeruginosa E411-17. Bacteria were cultivated in tryptic soy broth (TSB) (BD Bioscience, MD).
The antibacterial activity of peptides was evaluated using a standard broth microdilution protocol with minor modifications as described (Mishra, et al. (2012) J. Am. Chem. Soc., 134:12426-12429). In brief, logarithmic phase bacterial cultures (i.e., optical density at 600 nm≈0.5) were diluted to OD600 0.001 and partitioned into a 96-well polystyrene microplate at 90 μL per well. After treatment with 10 μL of peptide solutions two fold diluted to various concentrations, microplates were incubated at 37° C. overnight and read on a ChroMate® 4300 Microplate Reader at 630 nm (GMI, Ramsey, MN). […] To study the influence of medium conditions on the antimicrobial activity of peptides against S. aureus USA300, up to 200 mM sodium chloride (NaCl), 2 mM of calcium chloride, 5-10% of human serum, mouse plasma, fluid, or supernatants of tissue homogenates were included into the assays.

S. aureus USA300 [1] = assay: microbe, parasite or virus in culture; type: cell-based, Staphylococcus aureus
Method in brief: as §1

S. aureus M838-17 (MRSA) = assay: microbe, parasite or virus in culture; type: cell-based, Staphylococcus aureus; details: M838-17; read-out: MIC S. aureus M838-17 (MRSA)
Method in brief: as §1

[2] = tested on: trypsin, chymotrypsin, S. aureus V8 protease, Proteinase K
Description: Briefly, a solution (100 μL) of peptide/protease molar ratio, 40:1 was made in 10 mM PBS buffer (pH 8.0) and was incubated at 37° C. Aliquots (10 μL) of the reaction solutions were taken after 1, 3 and 6 days and immediately mixed with 20 μL of 2×SDS loading buffer and boiled in a water bath to stop the reaction. For the SDS gel analysis, 10 μL of each sample was loaded to the well of a 5% stacking/18% resolving tricine gel and run at a constant current of 35 mA.

P. aeruginosa PAO1 = type: cell-based, Pseudomonas aeruginosa; details: PAO1
Method in brief: as §2

Hemolytic assay = type: cell-based, human; details: human, human red blood cells, 2% (v/v)
Method in brief: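 Washed hRBCs (2% v/v) exposed to peptide for 1 h at 37 °C, then centrifuged and hemoglobin in supernatant read at 545 nm. Lysis normalized to Triton X-100 (2% or 1%; 100%) and PBS (0%); HL50 is the peptide concentration giving 50% lysis, and CSI is HL50/MIC.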

E. coli ATCC 25922 = type: cell-based, Escherichia coli; details: ATCC 25922
Method in brief: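 Broth microdilution: log-phase E. coli diluted to OD600 0.001 and exposed to two-fold serial peptide dilutions overnight at 37 °C. Growth read at 630 nm.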

S. aureus USA300 [3] = details: starting template; cited from earlier work

Compound: CC(C)C[C@@H](NC(=O)[C@@H](CC(C)C)NC(=O)[C@@H](CCCCN)NC(=O)[C@@H](CC(C)C)NC(=O)CNC(=O)[C@@H](CC(C)C)NC(=O)[C@@H](CO)NC(=O)[C@@H](CC(C)C)NC(=O)[C@@H](CC(C)C)NC(=O)[C@@H](CC(C)C)NC(=O)[C@@H](CCCCN)NC(=O)[C@@H](CC(C)C)NC(=O)CN)C(N)=O [DFT561d, GLKLLLSLGLKLL] (H-G[dL][dK][dL][dL][dL][dS][dL]G[dL][dK][dL][dL]-NH2; N-terminus and C-terminus assumed)
- MIC (E. coli E423-17): >50 µM
- MIC (K. pneumoniae E406-17): >50 µM
- MIC (P. aeruginosa E411-17): >50 µM
- MIC E. faecium V286-17 (VRE) (E. faecium V286-17 (VRE)): 3.1 to 6.25 µM
- MIC E. coli ampC E416-7 (E. coli ampC E416-7): >50 µM
- MIC (S. aureus USA300 [1]; USA300): 3.1 µM (≈ 4.28 µg/mL)
- MIC (S. aureus USA300 [1]; USA300, pH 6.8): 3.1 µM (≈ 4.28 µg/mL)
- MIC (S. aureus USA300 [1]; USA300, pH 7.4): 1.6 µM (≈ 2.21 µg/mL)
- MIC (S. aureus USA300 [1]; USA300, pH 8): 1.6 µM (≈ 2.21 µg/mL)
- MIC (S. aureus M838-17 (MRSA)): 3.1 µM (≈ 4.28 µg/mL)
- Protease stability [2]: resistant to proteases
- MIC PA (P. aeruginosa PAO1) (P. aeruginosa PAO1): >25 µM
- HC50 at 1 h (Hemolytic assay): > 300 µM
- MIC EC (E. coli ATCC 25922) (E. coli ATCC 25922): >25 µM

Compound: temporin-SHf
- MIC against MRSA (S. aureus USA300 [3]): 25 µM
